The source of these data is ChEMBL document CHEMBL1145849, “QSAR and the rational design of long-acting dual D2-receptor/beta 2-adrenoceptor agonists” (J Med Chem, 2003).

Structures are written as SMILES. “And” between values parts separate entries of the source, which are not always exact repeats. Equal values may be shown once. Bounds are passed on as bounds.

In series [1] the target is D(2) dopamine receptor (Homo sapiens) (UniProt P14416). Briefly: […] D2 duration was determined using electrically stimulated guinea-pig isolated trachea superfusion system. The series is classed as functional. The conditions noted are these: Cavia porcellus, target entry is the homologue from another species.
Series [2] can be described thus: physchem.
Description: (§1) Classification of ionization constant (pKa)
For series [3], the target named is Beta-2 adrenergic receptor (Cavia porcellus) (UniProt Q8K4Z4). To be noted: Trachea.
Description: Beta-2-adrenoceptor potency was determined in rings of guinea-pig isolated trachea
The nature of series [4]: physchem. To be noted: octanol/water, pH 7.4, logD.
Series [5] is described as follows: physchem. The source holds these as a separate data set.
Description: as §1
Series [6] can be described thus: physchem. The source holds these as a separate data set.
Description: Ionization constant (pKa)
Series [7] concerns the target Beta-2 adrenergic receptor (Cavia porcellus) (UniProt Q8K4Z4).
Description: In vitro beta-2 duration was determined using electrically stimulated guinea-pig isolated trachea superfusion system
For series [8] the following is noted: octanol/water, pH 7.4.

What is called pKa is the negative logarithm of the acid dissociation constant. Lower therefore signals a group that gives up its proton readily. Broadly, the logD is the decadic logarithm of the distribution of all forms, ionised or not, between an organic phase and buffer at a given pH.

D(2) dopamine receptor (Homo sapiens), sequence (P14416 whole entry, the tested form may be a part): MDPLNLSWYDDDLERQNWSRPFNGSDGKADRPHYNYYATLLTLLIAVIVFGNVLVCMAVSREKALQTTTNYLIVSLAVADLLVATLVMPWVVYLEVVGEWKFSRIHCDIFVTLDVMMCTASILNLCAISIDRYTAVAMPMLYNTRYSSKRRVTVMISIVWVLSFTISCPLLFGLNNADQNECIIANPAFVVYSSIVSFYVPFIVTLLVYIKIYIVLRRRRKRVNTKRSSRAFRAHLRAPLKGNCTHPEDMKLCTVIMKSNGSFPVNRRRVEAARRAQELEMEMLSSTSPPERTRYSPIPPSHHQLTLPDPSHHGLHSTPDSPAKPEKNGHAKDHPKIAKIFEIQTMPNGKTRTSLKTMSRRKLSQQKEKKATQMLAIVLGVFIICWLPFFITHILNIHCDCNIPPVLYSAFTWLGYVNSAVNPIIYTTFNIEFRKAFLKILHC
Beta-2 adrenergic receptor (Cavia porcellus), sequence (Q8K4Z4 whole entry, looked up): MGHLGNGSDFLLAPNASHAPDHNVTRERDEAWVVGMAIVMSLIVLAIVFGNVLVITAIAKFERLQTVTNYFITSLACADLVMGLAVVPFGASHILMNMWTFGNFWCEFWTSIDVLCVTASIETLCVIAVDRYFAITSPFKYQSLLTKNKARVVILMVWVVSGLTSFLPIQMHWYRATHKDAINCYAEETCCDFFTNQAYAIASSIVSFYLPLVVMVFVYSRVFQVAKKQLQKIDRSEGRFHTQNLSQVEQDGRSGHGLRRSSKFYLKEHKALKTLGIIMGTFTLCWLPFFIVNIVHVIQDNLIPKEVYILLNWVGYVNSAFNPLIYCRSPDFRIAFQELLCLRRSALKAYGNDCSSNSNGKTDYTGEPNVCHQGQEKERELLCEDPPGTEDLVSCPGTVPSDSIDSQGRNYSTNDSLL

Turning to `O=S(=O)(CCCNCCc1ccc(O)c2nc(O)sc12)CCOCCc1ccccc1`, the D2 duration in series [1] was found to be 270 min. Moreover, the pKa in series [2] was 9.07; in series [5], 7.35; in series [6] it was greater than 8. The compound further yielded a p[A]50 in series [3] of 7.93. The same compound gave a logD in series [4] of 1.37. In series [7], this compound returned a Beta2 duration of 140 min.

For `O=c1[nH]c2c(O)ccc(CCNCCCSCCOCCc3ccccc3)c2s1`, the D2 duration in series [1] came out at 270 min. The pKa in series [2] is 10.2; in series [6], greater than 8. The compound further came in with a p[A]50 in series [3] of 8.02. Besides, the results for the logD in series [4] and in series [8] were 2.31 and 3.53, respectively. This compound also registered a Beta2 duration in series [7] greater than 180 min.

As for `O=c1[nH]c2c(O)ccc(CCNCCCS(=O)(=O)CCCOCCc3ccccc3)c2s1`, the D2 duration in series [1] turned out to be 270 min. Also, the p[A]50 in series [3] turned out to be 8.24. The values for the logD in series [4] and in series [8] were 1.65 and 1.34, respectively. Further, the pKa in series [6] is greater than 8. For the same compound, in series [7], the Beta2 duration is 172 min and 80 min.

On to `O=C(CCOCCc1ccccc1)NCCNCCc1ccc(O)c2nc(O)sc12`, for which the D2 duration in series [1] worked out at 150 min. Further, the values for the pKa in series [2], in series [5] and in series [6] were 8.75, 7.62 and greater than 8, respectively. The p[A]50 in series [3] was 9.27. The compound further showed a pH-dependent lipophilicity (logD) in series [4] of 1.34. The same compound gave a Beta2 duration in series [7] of 57 min.
